Patent publication US8933018B2, “Boron containing polybasic bacterial efflux pump inhibitors and therapeutic uses thereof” (priority 2011, dated 2015)

test system: P. aeruginosa, PAM1723, overexpressing the MexAB-OprM efflux pump; assay type: cell-based, Pseudomonas aeruginosa; conditions: lowest EPI concentration giving antibacterial activity with levofloxacin at 1/8 of its MIC, MHB, 20 h at 35° C.
Protocol: All EPI compounds were readily soluble in water and stock solutions were prepared at a final concentration of 10 mg/ml. Stock solutions were further diluted, according to the needs of the particular assay, in Mueller Hinton Broth (MHB). Stock solution was stored at […].
The checkerboard assay was performed in microtiter plates. […] EPIs were diluted in the y-axis, each row containing a single concentration of an EPI. […] The assay was performed in MHB with a final bacterial inoculum of 5 times 10^5 CFU/ml (from an early-log phase culture). Microtiter plates were incubated during 20 h at 35° C. and were read using a microtiter plate reader (Molecular Devices) at 650 nm as well as visual observation using a microtiter plate-reading mirror.

SMILES | MPC8 (Minimum Potentiating Concentration)
NCCN(CCN)C(=O)C[C@H](N)C(=O)N[C@H](CCc1ccc(C(F)(F)F)cc1)C(=O)Nc1ccc2c(c1)B(O)OC2 [Compound 7, (S)-2-amino-N4,N4-bis(2-aminoethyl)-N1-((R)-1-(1-hydroxy-1,3-dihydrobenzo[c][1,2]oxaborol-6-ylamino)-1-oxo-4-(4-(trifluoromethyl)phenyl)butan-2-yl)succinamide] | B (B = MPC8 of 2.5 μg/ml to less than 10 μg/mL.)
CC1(C)OB(O)c2c1ccc(F)c2NC(=O)[C@@H](CCc1ccc(C(F)(F)F)cc1)NC(=O)[C@@H](N)CCC(=O)N(CCN)CCN [Compound 103, (S)-2-amino-N^5,N^5-bis(2-aminoethyl)-N^1-((R)-1-(6-fluoro-1-hydroxy-3,3-dimethyl-1,3-dihydrobenzo[c][1,2]oxaborol-7-ylamino)-1-oxo-4-(4-(trifluoromethyl)phenyl)butan-2-yl)pentanediamide] | B (B = MPC8 of 2.5 μg/ml to less than 10 μg/mL.)
NCCN(CCN)C(=O)CC[C@H](N)C(=O)N[C@H](CCc1ccc(C(F)(F)F)cc1)C(=O)Nc1ccc(F)c(B(O)O)c1 [Compound 32, 5-((R)-2-((S)-2-amino-5-(bis(2-aminoethyl)amino)-5-oxopentanamido)-4-(4-(trifluoromethyl)phenyl)butanamido)-2-fluorophenylboronic acid] | B (B = MPC8 of 2.5 μg/ml to less than 10 μg/mL.)
NCCN(CCN)C(=O)CC[C@H](N)C(=O)N[C@H](CCc1ccc(C(F)(F)F)cc1)C(=O)Nc1cc(B(O)O)c(F)cc1F [Compound 30, 5-((R)-2-((S)-2-amino-5-(bis(2-aminoethyl)amino)-5-oxopentanamido)-4-(4-(trifluoromethyl)phenyl)butanamido)-2,4-difluorophenylboronic acid] | C (C = MPC8 of 10 μg/mL or greater.)
CC1(C)OB(O)c2cc(C(=O)NC[C@@H](CCc3ccc(C(F)(F)F)cc3)NC(=O)[C@@H](N)CCC(=O)N(CCN)CCN)ccc21 [Compound 106, (S)-2-amino-N^5,N^5-bis(2-aminoethyl)-N^1-((R)-1-(1-hydroxy-3,3-dimethyl-1,3-dihydrobenzo[c][1,2]oxaborole-6-carboxamido)-4-(4-(trifluoromethyl)phenyl)butan-2-yl)pentanediamide] | B (B = MPC8 of 2.5 μg/ml to less than 10 μg/mL.)
N[C@@H]1C[C@H](N)CN(C(=O)CC[C@H](N)C(=O)N[C@H](Cc2ccc(C(F)(F)F)cc2)C(=O)Nc2cc(B(O)O)cc(C(F)(F)F)c2)C1 [Compound 18, 3-((R)-2-((S)-2-amino-5-((3R,5S)-3,5-diaminopiperidin-1-yl)-5-oxopentanamido)-3-(4-(trifluoromethyl)phenyl)propanamido)-5-(trifluoromethyl)phenylboronic acid] | B (B = MPC8 of 2.5 μg/ml to less than 10 μg/mL.)
CC1(C)OB(O)c2ccc(NC(=O)[C@@H](Cc3ccc(C(F)(F)F)cc3)NC(=O)[C@@H](N)CCC(=O)NC(CN)CN)cc21 [Compound 95, (S)-2-amino-N^5-(1,3-diaminopropan-2-yl)-N^1-((R)-1-(1-hydroxy-3,3-dimethyl-1,3-dihydrobenzo[c][1,2]oxaborol-5-ylamino)-1-oxo-3-(4-(trifluoromethyl)phenyl)propan-2-yl)pentanediamide] | B (B = MPC8 of 2.5 μg/ml to less than 10 μg/mL.)
CC1(C)OB(O)c2c(NC(=O)[C@@H](Cc3ccc(C(F)(F)F)cc3)NC(=O)[C@@H](N)CCC(=O)N(CCN)CCN)cccc21 [Compound 101, (S)-2-amino-N^5,N^5-bis(2-aminoethyl)-N^1-((R)-1-(1-hydroxy-3,3-dimethyl-1,3-dihydrobenzo[c][1,2]oxaborol-7-ylamino)-1-oxo-3-(4-(trifluoromethyl)phenyl)propan-2-yl)pentanediamide] | B (B = MPC8 of 2.5 μg/ml to less than 10 μg/mL.)
NCCN(CCN)C(=O)CC[C@H](N)C(=O)N[C@H](CCc1ccc(C(F)(F)F)cc1)C(=O)Nc1cc(B(O)O)ccc1F [Compound 25, 3-((R)-2-((S)-2-amino-5-(bis(2-aminoethyl)amino)-5-oxopentanamido)-4-(4-(trifluoromethyl)phenyl)butanamido)-4-fluorophenylboronic acid] | B (B = MPC8 of 2.5 μg/ml to less than 10 μg/mL.)
CC(C)c1ccc(C[C@@H](NC(=O)[C@@H](N)CCC(=O)N(CCN)CCN)C(=O)Nc2ccc3c(c2)B(O)OC3(C)C)cc1 [Compound 78, (S)-2-amino-N5,N5-bis(2-aminoethyl)-N^1-((R)-1-(1-hydroxy-3,3-dimethyl-1,3-dihydrobenzo[c][1,2]oxaborol-6-ylamino)-3-(4-isopropylphenyl)-1-oxopropan-2-yl)pentanediamide] | A (A = MPC8 of less than 2.5 μg/mL.)
NCC(O)(CN)CNC(=O)CC[C@H](N)C(=O)N[C@H](CCc1ccc(C(F)(F)F)cc1)C(=O)Nc1cccc(B(O)O)c1 [Compound 22, 3-((R)-2-((S)-2-amino-5-(3-amino-2-(aminomethyl)-2-hydroxypropylamino)-5-oxopentanamido)-4-(4-(trifluoromethyl)phenyl)butanamido) phenylboronic acid] | B (B = MPC8 of 2.5 μg/ml to less than 10 μg/mL.)
CC1(C)OB(O)c2ccc(NC(=O)[C@@H](CSc3ccc(C(F)(F)F)cc3)NC(=O)[C@@H](N)CCC(=O)NC(CN)CN)cc21 [Compound 98, (S)-2-amino-N^5-(1,3-diaminopropan-2-yl)-N^1-((S)-1-(1-hydroxy-3,3-dimethyl-1,3-dihydrobenzo[c][1,2]oxaborol-5-ylamino)-1-oxo-3-(4-(trifluoromethyl)phenylthio)propan-2-yl)pentanediamide] | B (B = MPC8 of 2.5 μg/ml to less than 10 μg/mL.)
N[C@@H]1C[C@H](N)C[C@H](NC(=O)CC[C@H](N)C(=O)N[C@H](CCc2ccc(C(F)(F)F)cc2)C(=O)Nc2ccc3c(c2)B(O)OC3)C1 [Compound 66, (S)-2-amino-N^5-((1s,3R,5S)-3,5-diaminocyclohexyl)-N^1-((R)-1-(1-hydroxy-1,3-dihydrobenzo[c][1,2]oxaborol-6-ylamino)-1-oxo-4-(4-(trifluoromethyl)phenyl)butan-2-yl)pentanediamide] | B (B = MPC8 of 2.5 μg/ml to less than 10 μg/mL.)
NCCN(CCN)C(=O)CC[C@H](N)C(=O)N[C@H](Cc1ccc(C(F)(F)F)cc1)C(=O)Nc1ccccc1B(O)O [Compound 8, 2-((R)-2-((S)-2-amino-5-(bis(2-aminoethyl)amino)-5-oxopentanamido)-3-(4-(trifluoromethyl)phenyl)propanamido)phenylboronic acid] | C (C = MPC8 of 10 μg/mL or greater.)
CC1(C)OB(O)c2cc(NC[C@@H](Cc3ccc(C(F)(F)F)cc3)NC(=O)[C@@H](N)CCC(=O)N(CCN)CCN)ccc21 [Compound 108, (S)-2-amino-N^5,N^5-bis(2-aminoethyl)-N^1-((R)-1-(1-hydroxy-3,3-dimethyl-1,3-dihydrobenzo[c][1,2]oxaborol-6-ylamino)-3-(4-(trifluoromethyl)phenyl)propan-2-yl)pentanediamide] | A (A = MPC8 of less than 2.5 μg/mL.)
NCCN(CCN)C(=O)CC[C@H](N)C(=O)N[C@H](CCc1ccc(C(F)(F)F)cc1)C(=O)Nc1cc(B(O)O)cc(F)c1F [Compound 28, 3-((R)-2-((S)-2-amino-5-(bis(2-aminoethyl)amino)-5-oxopentanamido)-4-(4-(trifluoromethyl)phenyl)butanamido)-4,5-difluorophenylboronic acid] | A (A = MPC8 of less than 2.5 μg/mL.)
NCCN(CCN)C(=O)CC[C@H](N)C(=O)N[C@H](Cc1ccc(C(F)(F)F)cc1)C(=O)Nc1cnc2ccc(B(O)O)cc2c1 [Compound 43, 3-((R)-2-((S)-2-amino-5-(bis(2-aminoethyl)amino)-5-oxopentanamido)-3-(4-(trifluoromethyl)phenyl)propanamido)quinolin-6-ylboronic acid] | B (B = MPC8 of 2.5 μg/ml to less than 10 μg/mL.)
NCCN(CCN)C(=O)CC[C@H](N)C(=O)N[C@H](CCC1CCCCC1)C(=O)Nc1cc(B(O)O)cc(C(F)(F)F)c1 [Compound 12, 3-((R)-2-((S)-2-amino-5-(bis(2-aminoethyl)amino)-5-oxopentanamido)-4-cyclohexylbutanamido)-5-(trifluoromethyl)phenylboronic acid] | A (A = MPC8 of less than 2.5 μg/mL.)
CC1(C)OB(O)c2ccc(NC(=O)[C@@H](CCc3ccc(C(F)(F)F)cc3)NC(=O)[C@@H](N)CCC(=O)N(CCN)CCN)cc21 [Compound 94, (S)-2-amino-N^5,N^5-bis(2-aminoethyl)-N^1-((R)-1-(1-hydroxy-3,3-dimethyl-1,3-dihydrobenzo[c][1,2]oxaborol-5-ylamino)-1-oxo-4-(4-(trifluoromethyl)phenyl)butan-2-yl)pentanediamide] | A (A = MPC8 of less than 2.5 μg/mL.)
N[C@@H]1C[C@H](N)C[C@H](NC(=O)CC[C@H](N)C(=O)N[C@H](CCc2ccc(C(F)(F)F)cc2)C(=O)Nc2cccc(B(O)O)c2)C1 [Compound 23, 3-((R)-2-((S)-2-amino-5-((1S,3R,5S)-3,5-diaminocyclohexylamino)-5-oxopentanamido)-4-(4-(trifluoromethyl)phenyl)butanamido)phenylboronic acid] | B (B = MPC8 of 2.5 μg/ml to less than 10 μg/mL.)
